Data reported in patent US9695179B2, “Methods and compositions for inhibition of bromodomain-containing proteins” (CONVERGENE LLC, priority 2013, dated 2017).

Experiments:
[1] = tested on: MM1.S Cells (Multiple Myeloma); assay: In vitro cell viability, MM1.S; assay type: cell-based; details: Homo sapiens
Description: [Worded in the source for another cell line; this cell line is reported under the same test.] (§1) MV4-11 acute myeloid leukemia cells (American Type Culture Collection, Manassas, Va.) were added to 96-well clear bottom assay plates containing RPMI-1640 medium supplemented with 10% fetal bovine serum (FBS) at approximately 30,000 cells/well and incubated for 24 hours at 37° C. with 5% CO2 and 95% humidity. Control wells containing no cells were included to measure background fluorescence signal. Test compounds were dissolved at […] and diluted two-fold in DMSO to produce a working stock of compound solutions. Aliquots of the working stock solutions were subsequently diluted 100-fold in basal RPMI-1640 medium which was then further diluted 10-fold to the assay plate containing the cells to provide 10 test concentrations ranging from 0.04 μM-20 μM. Following a 72-hour incubation period, viability of the cells was determined by the AlamarBlue® assay (Life Technologies, Carlsbad, Calif.) following the manufacturer's protocol. Prior to generation of dose response curves, the data were background subtracted using the no cell control values (mean+/−standard deviation) and fluorescence values versus Log10 concentration of test compounds were plotted using GraphPad Prism. The resulting sigmoidal curve was then fit to the graph and IC50 values were calculated using a 4 parameter (4PL) algorithm using the following equation: 4(PL)F(x)=(A−D)/(1+(x/c)^B+D, where A=lower asymptote (baseline response), D=upper asymptote (maximum response), C=drug concentration that provokes a response halfway between A and D, B=slope of the curve. The results for selected compounds are set forth in Table 7.

[2] = tested on: MV4-11 acute myeloid leukemia cells; assay: In vitro cell viability (AlamarBlue), MV4-11; assay type: cell-based; details: Homo sapiens, MV4-11 cells, 72-hour incubation, read-out: In Vitro Cell Viability (IC50) MV4-11 Cells (AML)
Description: as §1

BRD4-BD1-BD2 = BRD4-BD1-BD2 (Homo sapiens (Human), UniProt O60885); assay: AlphaScreening assay, recombinant BRD4-BD1-BD2 and BET Ligand; assay type: binding; details: 2.5 nM BRD4-BD1-BD2, BET Ligand
Description: Assays were performed by AlphaScreening technology using a recombinant BRD4-BD1-BD2 and BET Ligand. The AlphaScreening signal from the assay was correlated with the amount of BET Ligand binding to the bromodomain. The compounds were diluted in 50% DMSO and 1 μl of the dilution was added to a 10 μl reaction so that the final concentration of DMSO is 5% in all of reactions. All reactions were conducted at room temperature. The 9 μl reaction mixture in BRD Assay Buffer contains 2.5 nM BRD4-BD1-BD2 and the indicated amount of the inhibitor, and the reaction mixture were incubated for 30 min followed by additional 30 min incubation after the addition of 1 μl of BET Ligand (Table 2.3.1). For the negative control (blank), 1 μl of the assay buffer was added instead of the BET Ligand. After the 30 min incubation with the BET Ligand, 20 μl of BRD Detection buffer containing 10 μg/ml Glutathione acceptor beads and 10 μg/ml Streptavidin Donor beads was added and the final 30 μl mixture was incubated for 50 min in a dark room.
AlphaScreening signal was measured using EnSpire Alpha 2390 Multilabel reader (Perkin Elmer). Binding experiments were performed in duplicate at each concentration. The AlphaScreening data were analyzed using the computer software, Graphpad Prism. In the absence of the compound, the AlphaScreening signal (At) in each data set was defined as 100% activity. In the absence of the BET Ligand, the AlphaScreening signal (Ab) in each data set was defined as 0% activity. The percent activity in the presence of each compound was calculated according to the following equation: % activity=[(A−Ab)/(At−Ab)]×100, where A=the AlphaScreening signal in the presence of the compound, Ab=the AlphaScreening signal in the absence of the BET Ligand, and At=the AlphaScreening signal in the absence of the compound. The percent inhibition was calculated for certain compounds according to the following equation: % inhibition=100−% activity.

| IC50 [1] [µM] | IC50 [2] [µM] | % inhibition at 10 μM (BRD4-BD1-BD2) [%] | inhibition at 10 µM (BRD4-BD1-BD2) [%] | SMILES |
| --- | --- | --- | --- | --- |
| 31.9 | 3.57 |  |  | COc1ccc(/C=C/C(=O)c2c(-c3ccccc3)c3cc(Cl)ccc3[nH]c2=O)cc1OC [Compound 6, 6-chloro-3-(3-(3,4-dimethoxyphenyl)acryloyl)-4-phenylquinolin-2(1H)-one] |
| 3 | 1.75 |  |  | COc1ccc(OC)c(/C=C/C(=O)c2c(-c3ccccc3)c3cc(Br)ccc3[nH]c2=O)c1 [Compound 10, 6-bromo-3-(3-(2,5-dimethoxyphenyl)acryloyl)-4-phenylquinolin-2(1H)-one] |
| 3.1 | 4.73 |  |  | Cc1ccccc1CNC(=O)c1c(-c2ccccc2)c2cc(Cl)ccc2[nH]c1=O [Compound 13, 6-chloro-N-(2-methylbenzyl)-2-oxo-4-phenyl-1,2-dihydroquinoline-3-carboxamide] |
| 4.21 | 0.97 |  |  | O=C(/C=C/c1ccccc1)c1c(-c2ccncc2)c2cc(Cl)ccc2[nH]c1=O [Compound 11, 6-chloro-3-cinnamoyl-4-(pyridin-4-yl)quinolin-2(1H)-one] |
| 2.53 | 1.49 |  |  | COc1ccccc1/C=C/C(=O)c1c(-c2ccccc2)c2cc(Cl)ccc2[nH]c1=O [Compound 5, 6-chloro-3-(3-(2-methoxyphenyl)acryloyl)-4-phenylquinolin-2(1H)-one] |
|  |  | 71 |  | Cc1ccc(-c2nnc(Sc3c(-c4ccccc4)c4cc(Cl)ccc4[nH]c3=O)n2/N=C/c2ccccc2)cc1 [drawing 647] |
|  |  |  | 51 | Cc1noc(C)c1-c1ccc2[nH]c(=O)cc(O)c2c1 |
| 2.44 | 1.04 |  |  | Cc1ccccc1/C=C/C(=O)c1c(-c2cccnc2)c2cc(Cl)ccc2[nH]c1=O [Compound 12, 6-chloro-4-(pyridin-3-yl)-3-(3-o-tolylacryloyl)quinolin-2(1H)-one] |
|  |  |  | 98 | COc1ccc(Cn2c(=O)c(-c3coc(C)n3)c(OS(=O)(=O)c3cccc4cccnc34)c3cc(Cl)ccc32)cc1 [drawing 652] |
|  |  |  | 50 | C/C(=C\C(=O)c1c(-c2ccccc2)c2cc(Cl)ccc2[nH]c1=O)c1c(F)cccc1Cl |
| 14.1 | 0.71 |  |  | O=C(/C=C/c1ccccc1)c1c(-c2ccccc2)c2cc(Cl)cnc2[nH]c1=O [Compound 14, 6-chloro-3-cinnamoyl-4-phenyl-1,8-naphthyridin-2(1H)-one] |
|  |  |  | 99 | Cc1noc(C)c1-c1ccc2[nH]c(=O)cc(NCc3ccccc3)c2c1 |
|  |  |  | 99 | COc1ccc(Cn2c(=O)c(-c3coc(C)n3)c(OS(=O)(=O)c3ccc(-c4ccccc4)cc3)c3cc(Cl)ccc32)cc1 [drawing 657] |
|  |  |  | 82 | Cc1noc(C)c1-c1ccc2[nH]c(=O)cc(-c3ccccc3)c2c1 |
|  |  |  | 70 | Cc1ccc(-c2nnc(Sc3c(-c4ccccc4)c4cc(Cl)ccc4[nH]c3=O)n2/N=C/c2ccccc2)cc1 [drawing 646] |
|  |  |  | 85 | Cc1noc(C)c1-c1ccc2c(-c3ccccc3)cc(=O)[nH]c2c1 |
